In one data set the test system is zebrafish embryos. The data set is described as follows: Acute toxicity in zebrafish embryos. It counts as in vivo. The procedure:
To perform the test of acute toxicity, a total of 20 fertilized zebrafish embryos were collected at around 4 h after fertilization and added to each well in a 12-well plate. […] Incubation of the plate then took place until 48 h after fertilization at a temperature of 28.5 ± 1 °C. The test solutions were refreshed at 24 h after fertilization to allow the counting and removal of any dead embryos. Following exposure, a stereomicroscope (SZX16, Olympus, Japan) was used to record the embryo morphological effects. Meanwhile, a slightly modified version of a previously described melanin inhibitory assay was carried out[30]. The embryos were then homogenized using a cold lysis buffer (PBS pH 7.4, 1% Triton-X and 1% DMSF). The lysate then underwent 10 min of sonication before being placed in a centrifuge for 5 min at 10,000×g. The pellet was then removed from the centrifuge and dissolved in 200 µL of 1 N NaOH for 1 h at a temperature of 85 °C. This sample was subsequently vortexed and placed in the centrifuge for a further 5 min at 10,000×g. A microplate reader (Spectramax M5, Molecular Devices, USA) was then employed to determine the supernatant absorbance at 490 nm. Melanin content levels could then by calibrated by using the protein amount, and were reported in the form of a percentage compared to the untreated control. In the melanin inhibitory assay, the positive control used was phenylthiourea (PTU) solution (0.0015%).

A further data set relates to Mitf. The data set is described as follows: qRT-PCR, Mitf mRNA. It is filed as cell-based, mouse. Particulars: B16F10, 48 h. The method, then: A 6-well plate was used to seed B16F10 cells at 1 × 10^5 cells per well prior to overnight incubation in a 5% CO2 humid atmosphere at 37°C. […] Harvesting was conducted via removal of the supernatant, and the cells were rinsed twice in PBS (phosphate-buffered saline). The PureLink™RNA Mini Kit (Invitrogen™, USA) was then used to extract total RNA in line with the guidance of the manufacturer. RNA concentration was assessed at 260 nm with a NanoDrop 2000 UV-Vis spectrophotometer (Thermo Fisher Scientific, Inc.). Oligo-dT primers and a Precision nanoScript II Reverse Transcription Kit (PrimerDesign, Camberley, UK) were used to perform the reverse transcription of 1 µg of total RNA to cDNA in line with the guidance of the manufacturer. MyGo Pro®Real time PCR apparatus (IT-IS International Ltd., Stokesley, UK) was then used to perform the qRT-PCR assays in which 20 µL of PCR reaction contained 1 µL of cDNA, 7 µL of ultrapure water, 1 µL of each primer […], and 10 µL of 2×qPCRBIO SyGreen Mix (PCR Biosystems Ltd, London, UK). This research made use of the following PCR primers: Gapdh forward 5’-[…]-3’, Gapdh reverse 5’-[…]-3’, Tyr forward 5’-[…]-3’, Tyr reverse 5’-[…]-3’, Trp-1 forward 5’-[…]-3’, Trp-1 reverse 5’-[…]-3’, Trp-2 forward 5’-[…]-3’, Trp-2 reverse 5’-[…]-3’, Mitf forward 5’-[…] − 3’, Mitf reverse 5’-[…]-3’. The initial stage of the process of qRT-PCR amplification was the activation step of thermal treatment where a temperature of 95 °C was used for 2 min, with 45 subsequent cycles comprising 10 s at 95 °C, 20 s at 60 °C, and 30 s at 72 °C, before embarking upon the final melting curve from 60 to 97 °C with 1 min for each step. The relative gene expression level could then be calculated via the cycle threshold (Ct) value, while the role of endogenous control for data normalization was occupied by Gapdh (the housekeeping gene). To calculate relative gene expression, the formula given below can be employed:2 [drawing 2]
where the heightened threshold cycle for the target gene is given as ΔΔCt.
(In general: Real-time PCR tracks product formation cycle by cycle.)

The next data set deals with T1, mushroom TYR (Agaricus bisporus, UniProt C7FF04).
T1 construct: purchased Sigma-Aldrich, Merck T3824
T1 sequence (C7FF04 2-392): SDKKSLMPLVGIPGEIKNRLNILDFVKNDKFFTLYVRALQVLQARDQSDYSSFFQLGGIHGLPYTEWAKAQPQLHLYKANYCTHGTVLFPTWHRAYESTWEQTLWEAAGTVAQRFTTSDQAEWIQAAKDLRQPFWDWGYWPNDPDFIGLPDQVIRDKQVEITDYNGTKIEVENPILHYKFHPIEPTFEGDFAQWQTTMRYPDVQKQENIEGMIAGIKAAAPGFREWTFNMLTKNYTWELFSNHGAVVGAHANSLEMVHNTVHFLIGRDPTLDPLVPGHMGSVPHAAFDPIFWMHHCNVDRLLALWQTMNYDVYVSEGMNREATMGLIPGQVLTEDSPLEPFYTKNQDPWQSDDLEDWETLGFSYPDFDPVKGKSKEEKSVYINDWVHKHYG
Kind of data set: Kinetic study, Lineweaver-Burk, di-phenolase. To be noted: Km rose, Vmax unchanged. It counts as biochemical. The method, then: It is necessary to determine the type of TYR inhibitory activity which takes place. This can be achieved through a modified version of an assay described by Feng et al.[39]. The process starts by dissolving the peptide VY-9 in deionized water at various concentrations (0, 0.25, 0.5, and 1 mM). Each VY-9 peptide sample at each concentration (35 µL) was combined 15 µL of mushroom TYR (333 U/mL in 50 mM PBS pH 6.8) prior to 5 min of incubation at 25 °C. Subsequently, various concentrations of substrate were introduced, namely 0–2 mM L-tyrosine in the case of mono-phenolase, and 0–12 mM L-DOPA for di-phenolase. These new mixtures underwent further incubation for 30 min at the same temperature of 25 °C. Upon completion, a spectrophotometer was used to measure the absorbance and determine the inhibitory activity at 490 nm. Lineweaver-Burk plots were then used in calculating Km and Vmax, the kinetic parameters. Km is indicated by the intersection point on the X-axis while Vmax is indicated by the intersection point on the Y-axis in the mode of TYR inhibition under examination. Construction of the plots linked the substrate concentration reciprocal on the X-axis and the absorbance reciprocal (at 490 nm) on the Y-axis, to represent the starting rate for the enzymatic reaction. […]

A further data set relates to Tyr. The data set is described as follows: qRT-PCR, Tyr mRNA. To be noted: B16F10, 48 h. It counts as cell-based, mouse. The procedure:
(§1) A 6-well plate was used to seed B16F10 cells at 1 × 10^5 cells per well prior to overnight incubation in a 5% CO2 humid atmosphere at 37°C. […] Harvesting was conducted via removal of the supernatant, and the cells were rinsed twice in PBS (phosphate-buffered saline). The PureLink™RNA Mini Kit (Invitrogen™, USA) was then used to extract total RNA in line with the guidance of the manufacturer. RNA concentration was assessed at 260 nm with a NanoDrop 2000 UV-Vis spectrophotometer (Thermo Fisher Scientific, Inc.). Oligo-dT primers and a Precision nanoScript II Reverse Transcription Kit (PrimerDesign, Camberley, UK) were used to perform the reverse transcription of 1 µg of total RNA to cDNA in line with the guidance of the manufacturer. MyGo Pro®Real time PCR apparatus (IT-IS International Ltd., Stokesley, UK) was then used to perform the qRT-PCR assays in which 20 µL of PCR reaction contained 1 µL of cDNA, 7 µL of ultrapure water, 1 µL of each primer […], and 10 µL of 2×qPCRBIO SyGreen Mix (PCR Biosystems Ltd, London, UK). […] The relative gene expression level could then be calculated via the cycle threshold (Ct) value, while the role of endogenous control for data normalization was occupied by Gapdh (the housekeeping gene). […]

For another data set, the system named is Trp-1. Kind of data set: qRT-PCR, Trp-1 mRNA. It counts as cell-based, mouse. To be noted: B16F10, 48 h. The method, then:
as §1

Entries after “also recorded” stand apart in the source; their conditions may differ. Ends that are not written are not given here.

For the sequence “VDGYPAAGY [VY-9, Val-Asp-Gly-Tyr-Pro-Ala- Ala-Gly-Tyr]”, in the data set with zebrafish embryos (20 µM), the embryo development result was “the development of the embryo was significantly retarded”. In the data set with zebrafish embryos (2–10 µM, vs control), the “embryo survival / malformation” value was “no significant influence; also recorded: no significant difference in the rates for survival or malformation”. Further, in the data set with zebrafish embryos (zebrafish embryos, to 48 h after fertilization, 28.5 °C), the “no observed effect concentration (NOEC)” value was 10 µM. In addition, the “Mitf mRNA expression vs control” value in the data set on Mitf (1.6 µM) was “significantly reduced the expression levels of all measured genes”. In addition, in the data set on Mitf (vs control), the “concentration from which Mitf mRNA expression decreased” value was determined as 0.2 µM. In the data set on Mitf (VY-9 1.6 µM vs arbutin 0.2 mM), the “Mitf mRNA expression vs arbutin” value was “significantly decreased compared to arbutin”. In addition, on mushroom TYR, the “inhibition type, di-phenolase” value is given as “competitive inhibitor”. In the data set with Tyr (1.6 µM), the “Tyr mRNA expression vs control” value is listed as “significantly reduced the expression levels of all measured genes”. Moreover, the “concentration from which Tyr mRNA expression decreased” value in the data set on Tyr (vs control) is 0.4 µM. Also, the “Trp-1 mRNA expression vs control” value in the data set with Trp-1 (1.6 µM) is given as “significantly reduced the expression levels of all measured genes”. In addition, in the data set with Trp-1 (vs control), the “concentration at which Trp-1 mRNA expression was reduced (highest only)” value is 1.6 µM.

For the origin of these results see publication PMC11681159, “Bee pollen peptides as potent tyrosinase inhibitors with anti-melanogenesis effects in murine b16f10 melanoma cells and zebrafish embryos” (Scientific Reports, 2024).
